# According to patent US9783505B2, “Substituted diaminopyrimidyl compounds, compositions thereof, and methods of treatment therewith” (Signal Pharmaceuticals, LLC, priority 2013, dated 2017):
# pIC50: −log10 of the molar value.
# How the values were obtained:
# His-PKC-theta = target: T1, His-PKC-theta (Homo sapiens, UniProt Q04759); test: PKC-theta Assay (384-well time resolved fluorescence, IMAP TR-FRET); type: biochemical; conditions: read-out: Act. Level (IC50 in the PKC-theta Assay)
# T1 construct: His; purchased Invitrogen
# Summary of the method: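 Enzyme at 142 pM phosphorylated 200 nM Fam-S6 peptide with 10 μM ATP in 50 mM HEPES pH 7.6, 10 mM MgCl2, 1 mM DTT for 2 h at room temperature. Product was detected after overnight incubation with IMAP binding reagent and Tb donor by time-resolved FRET.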
# PKC delta = target: T2, PKC delta (Homo sapiens, UniProt Q05655); test: PKC delta Assay (384-well time resolved fluorescence, IMAP TR-FRET); type: biochemical; conditions: selectivity for PKC-theta over PKC-delta
# T2 construct: purchased Invitrogen
# Description: PKC delta Assay. A 384-well time resolved fluorescence assay was used to monitor PKC delta activity. The PKC delta assay was run in the following assay buffer: 50 mM HEPES pH 7.6, 10 mM MgCl2, 1 mM DTT, 0.01% Triton X-100, 0.01% BSA and 0.1 mM EDTA. To initiate the reaction, 200 nM of Fam-labeled S6-derived peptide (Molecular Devices) and 10 μM of ATP were mixed with 1.5 nM of PKC delta (Invitrogen), for a total assay volume of 25 μL in each well. The assay was incubated at room temperature for 2 hours and terminated using a 60 μL/well mixture of Detection Binding Solution: 70% IMAP Progressive Binding Buffer A, 30% IMAP Progressive Binding Buffer B, 1:600 Progressive Binding Reagent, and 1:400 TR-FRET Tb Donor (Molecular Devices). The assay plates were then incubated overnight at room temperature and read on the Perkin-Elmer Envision Reader.
# T1 sequence (Q04759 whole entry): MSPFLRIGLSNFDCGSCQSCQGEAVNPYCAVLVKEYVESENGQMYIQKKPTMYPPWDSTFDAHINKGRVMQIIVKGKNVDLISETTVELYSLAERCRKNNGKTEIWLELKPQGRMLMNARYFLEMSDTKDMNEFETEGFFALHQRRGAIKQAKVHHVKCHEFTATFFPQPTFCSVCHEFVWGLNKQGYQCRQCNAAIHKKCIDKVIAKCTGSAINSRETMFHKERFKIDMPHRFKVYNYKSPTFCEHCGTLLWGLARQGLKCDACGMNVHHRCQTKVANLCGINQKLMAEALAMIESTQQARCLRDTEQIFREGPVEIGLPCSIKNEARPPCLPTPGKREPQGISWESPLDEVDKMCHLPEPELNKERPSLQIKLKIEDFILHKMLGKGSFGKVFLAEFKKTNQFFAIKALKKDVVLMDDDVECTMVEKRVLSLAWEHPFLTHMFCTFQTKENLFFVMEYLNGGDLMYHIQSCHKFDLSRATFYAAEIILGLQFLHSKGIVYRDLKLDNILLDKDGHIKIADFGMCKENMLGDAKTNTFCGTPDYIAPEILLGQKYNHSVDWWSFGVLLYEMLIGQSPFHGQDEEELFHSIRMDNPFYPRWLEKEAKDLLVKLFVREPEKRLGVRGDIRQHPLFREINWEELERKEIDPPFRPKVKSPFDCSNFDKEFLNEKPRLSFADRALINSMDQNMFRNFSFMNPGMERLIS
# T2 sequence (Q05655 whole entry): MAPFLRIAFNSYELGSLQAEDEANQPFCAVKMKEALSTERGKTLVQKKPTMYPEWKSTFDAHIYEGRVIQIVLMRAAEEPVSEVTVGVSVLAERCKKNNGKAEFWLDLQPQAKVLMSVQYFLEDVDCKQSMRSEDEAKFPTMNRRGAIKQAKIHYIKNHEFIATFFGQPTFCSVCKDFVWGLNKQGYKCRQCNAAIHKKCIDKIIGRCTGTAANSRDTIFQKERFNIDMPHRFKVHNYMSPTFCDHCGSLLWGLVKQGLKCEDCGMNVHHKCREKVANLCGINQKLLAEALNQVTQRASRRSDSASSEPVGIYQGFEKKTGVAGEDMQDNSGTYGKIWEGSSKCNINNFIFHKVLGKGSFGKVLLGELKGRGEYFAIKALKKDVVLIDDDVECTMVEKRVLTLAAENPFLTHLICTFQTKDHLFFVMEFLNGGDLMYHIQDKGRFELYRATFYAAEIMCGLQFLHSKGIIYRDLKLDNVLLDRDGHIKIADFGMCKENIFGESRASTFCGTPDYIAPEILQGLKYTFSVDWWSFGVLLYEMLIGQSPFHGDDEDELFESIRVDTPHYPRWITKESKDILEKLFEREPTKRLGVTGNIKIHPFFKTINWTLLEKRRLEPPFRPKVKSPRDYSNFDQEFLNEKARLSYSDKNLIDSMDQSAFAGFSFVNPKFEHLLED
Compound,pIC50 (His-PKC-theta),Sel. Level (ratio of IC50 PKC-delta/IC50 PKC-theta) (PKC delta)
CC1(C)C[C@H](Nc2nc(NCCn3cncn3)ncc2C#N)CC[C@@H]1O [Cmpd 223],5.00 to 5.70,H (selectivity level of 5-fold or less (selectivity level H))
CC1(C)C[C@H](Nc2nc(NCCc3ccn[nH]3)ncc2C#N)CC[C@@H]1O [Cmpd 216],5.70 to 6.10,G (selectivity between 5- and 20-fold (selectivity level G))
CC1(C)[C@H](O)CCC[C@H]1Nc1nc(NCCC2C(=O)Nc3ccccc32)ncc1C#N (some centres unmarked) [Cmpd 306],6.10 to 7.00,H (selectivity level of 5-fold or less (selectivity level H))
CCOc1cc(CCNc2ncc(C#N)c(N[C@H]3CC[C@@H](O)CC3)n2)ccn1 [Cmpd 328],5.00 to 5.70,H (selectivity level of 5-fold or less (selectivity level H))
Cn1c(=O)n(CCNc2ncc(C#N)c(N[C@@H]3CC[C@H](O)C(C)(C)C3)n2)c2ccccc21 [Cmpd 291],5.00 to 5.70,H (selectivity level of 5-fold or less (selectivity level H))
CC1(C)[C@@H](O)CCC[C@H]1Nc1nc(NCCC2C(=O)Nc3ccc(F)cc32)ncc1C#N (some centres unmarked) [Cmpd 316],> 7.00,F (selectivity of between 20- and 100-fold (selectivity level F))
CC1(C)[C@H](O)CCC[C@@H]1Nc1nc(NCCC2C(=O)Nc3ccc(F)cc32)ncc1C#N (some centres unmarked) [Cmpd 315],6.10 to 7.00,G (selectivity between 5- and 20-fold (selectivity level G))
CC1(C)C[C@H](Nc2nc(NCCc3c[nH]c4ccncc34)ncc2C#N)CC[C@@H]1O [Cmpd 284],5.00 to 5.70,H (selectivity level of 5-fold or less (selectivity level H))
CC(F)(F)COc1ncncc1CNc1ncc(C#N)c(N[C@H]2CCC[C@](C)(O)C2)n1 [Cmpd 285],5.00 to 5.70,H (selectivity level of 5-fold or less (selectivity level H))
COc1cncc(CCNc2ncc(C#N)c(N[C@H]3CC[C@@H](O)CC3)n2)c1 [Cmpd 331],5.00 to 5.70,H (selectivity level of 5-fold or less (selectivity level H))
Cc1cnccc1CCNc1ncc(C#N)c(N[C@@H]2C[C@H](O)C2(C)C)n1 [Cmpd 268],5.70 to 6.10,G (selectivity between 5- and 20-fold (selectivity level G))
Cc1cccc(CCNc2ncc(C#N)c(N[C@@H]3C[C@H](O)C3(C)C)n2)n1 [Cmpd 262],5.00 to 5.70,H (selectivity level of 5-fold or less (selectivity level H))
CC1(C)C[C@H](Nc2nc(NCCc3cc4ccccc4[nH]3)ncc2C#N)CC[C@@H]1O [Cmpd 200],5.70 to 6.10,G (selectivity between 5- and 20-fold (selectivity level G))
CC1(C)C[C@H](Nc2nc(NCCc3cnccn3)ncc2C#N)CC[C@@H]1O [Cmpd 279],5.00 to 5.70,H (selectivity level of 5-fold or less (selectivity level H))
CC1(C)C[C@H](Nc2nc(NCCc3c[nH]c4cc(F)ccc34)ncc2C#N)CC[C@@H]1O [Cmpd 252],> 7.00,E (selectivity (Sel. Level=ratio of IC50 PKC-delta/IC50 PKC-theta) of >100-fold (selectivity level E))
Cc1cc(C(F)(F)F)nn1CCNc1ncc(C#N)c(N[C@@H]2CC(O)C2(C)C)n1 (some centres unmarked) [Cmpd 225],5.00 to 5.70,H (selectivity level of 5-fold or less (selectivity level H))
CN(C)C(=O)[C@H]1C[C@@H](Nc2nc(NCCc3c[nH]c4ccccc34)ncc2C#N)C1 [Cmpd 288],6.10 to 7.00,G (selectivity between 5- and 20-fold (selectivity level G))
Cc1cnn(CCNc2ncc(C#N)c(N[C@@H]3CC[C@H](O)C(C)(C)C3)n2)c1 [Cmpd 212],5.00 to 5.70,H (selectivity level of 5-fold or less (selectivity level H))
CN1C(=O)C(CCNc2ncc(C#N)c(N[C@@H]3CC[C@H](O)C(C)(C)C3)n2)c2ccccc21 (some centres unmarked) [Cmpd 300],5.70 to 6.10,G (selectivity between 5- and 20-fold (selectivity level G))

Compound,pIC50 (His-PKC-theta),Sel. Level (ratio of IC50 PKC-delta/IC50 PKC-theta) (PKC delta)
CC1(C)C[C@H](Nc2nc(NCCn3cccn3)ncc2C#N)CC[C@@H]1O [Cmpd 211],5.00 to 5.70,H (selectivity level of 5-fold or less (selectivity level H))
CC1(C)C[C@H](Nc2nc(NCC[C@@]3(C)C(=O)Nc4ccccc43)ncc2C#N)CC[C@@H]1O [Cmpd 304],6.10 to 7.00,F (selectivity of between 20- and 100-fold (selectivity level F))
CC1(C)[C@H](Nc2nc(NCc3cncnc3OCCC(F)(F)F)ncc2C#N)C[C@]1(C)O [Cmpd 334],> 7.00,E (selectivity (Sel. Level=ratio of IC50 PKC-delta/IC50 PKC-theta) of >100-fold (selectivity level E))
COc1cncc(CCNc2ncc(C#N)c(N[C@@H]3CC[C@H](O)C(C)(C)C3)n2)c1 [Cmpd 329],6.10 to 7.00,G (selectivity between 5- and 20-fold (selectivity level G))
CC1(C)[C@@H](O)C[C@H]1Nc1nc(NCCc2c[nH]c3ccccc23)ncc1C#N [Cmpd 240],> 7.00,G (selectivity between 5- and 20-fold (selectivity level G))
CCc1cccn1CCNc1ncc(C#N)c(N[C@H]2CC[C@@H](C(N)=O)CC2)n1 [Cmpd 323],6.10 to 7.00,G (selectivity between 5- and 20-fold (selectivity level G))
CC1(C)C[C@H](Nc2nc(NCCc3nc4ccccc4o3)ncc2C#N)CC[C@@H]1O [Cmpd 205],5.00 to 5.70,H (selectivity level of 5-fold or less (selectivity level H))
CC1(C)C[C@H](Nc2nc(NCCc3cc(Cl)c[n+]([O-])c3)ncc2C#N)CC[C@@H]1O [Cmpd 275],5.70 to 6.10,G (selectivity between 5- and 20-fold (selectivity level G))
Cc1ccc(CCNc2ncc(C#N)c(N[C@@H]3CC(O)C3(C)C)n2)o1 (some centres unmarked) [Cmpd 232],6.10 to 7.00,F (selectivity of between 20- and 100-fold (selectivity level F))
CC1(C)[C@@H](Nc2nc(NCCC3C(=O)Nc4ccc(F)cc43)ncc2C#N)CCC[C@@H]1O (some centres unmarked) [Cmpd 313],6.10 to 7.00,F (selectivity of between 20- and 100-fold (selectivity level F))
CC(F)(F)COc1ncncc1CNc1ncc(C#N)c(N[C@H]2CCC[C@@H](O)C2(C)C)n1 [Cmpd 298],> 7.00,E (selectivity (Sel. Level=ratio of IC50 PKC-delta/IC50 PKC-theta) of >100-fold (selectivity level E))
Cc1nc2ccccc2n1CCNc1ncc(C#N)c(N[C@@H]2CC[C@H](O)C(C)(C)C2)n1 [Cmpd 207],5.00 to 5.70,H (selectivity level of 5-fold or less (selectivity level H))
CC1(C)[C@@H](O)C[C@H]1Nc1nc(NCCc2cn[nH]c2)ncc1C#N [Cmpd 244],6.10 to 7.00,G (selectivity between 5- and 20-fold (selectivity level G))
C[C@]1(O)CC2(C[C@H](Nc3nc(NCCC4C(=O)Nc5ccccc54)ncc3C#N)C2)C1 (some centres unmarked) [Cmpd 302],5.70 to 6.10,G (selectivity between 5- and 20-fold (selectivity level G))
CC1(C)C[C@H](Nc2nc(NCC[C@]3(C)C(=O)Nc4ccccc43)ncc2C#N)CC[C@@H]1O [Cmpd 303],5.00 to 5.70,H (selectivity level of 5-fold or less (selectivity level H))
CC1(C)C[C@H](Nc2nc(NCCc3cncc(C(F)(F)F)c3)ncc2C#N)CC[C@@H]1O [Cmpd 271],5.70 to 6.10,G (selectivity between 5- and 20-fold (selectivity level G))
CC1(C)C[C@H](Nc2nc(NCCc3c[nH]c4ccccc34)ncc2C#N)CC[C@@H]1O [Cmpd 203],> 7.00,F (selectivity of between 20- and 100-fold (selectivity level F))
CC1(C)C[C@H](Nc2nc(NCCc3cncnc3)ncc2C#N)CC[C@@H]1O [Cmpd 277],5.00 to 5.70,H (selectivity level of 5-fold or less (selectivity level H))
